Laboratory results reported in patent publication US12377104B1, “Methods for treating a fatty liver disease” (Madrigal Pharmaceuticals, Inc., priority 2024, dated 2025).
Read-outs that look alike come from different tables or passages of the source.

Assay: Resmetirom exposure parameters by dose, quartile and body weight
Format: in vivo, human
Conditions: for AUC / Cmax: human, in vivo, oral
Method: Various body weight cutoffs for dosing were evaluated.

CC(C)c1cc(Oc2c(Cl)cc(-n3nc(C#N)c(=O)[nH]c3=O)cc2Cl)n[nH]c1=O [Resmetirom, 2-(3,5-dichloro-4-((5-isopropyl-6-oxo-1,6-dihydropyridazin-3-yl)oxy)phenyl)-3,5-dioxo-2,3,4,5-tetrahydro-1,2,4-triazine-6-carbonitrile]
t1/2α Geometric Mean (100 mg, <80 kg): 1.26 h | t1/2α Mean (100 mg, <80 kg): 1.47 h | t1/2α Median (100 mg, <80 kg): 1.44 h | t1/2β Geometric Mean (100 mg, <80 kg): 5.36 h | t1/2β Mean (100 mg, <80 kg): 6.85 h | t1/2β Median (100 mg, <80 kg): 4.41 h | Percentage of Cave,ss in quartile (100 mg; Q1: [20-155) ng/mL): 19% | Percentage of Cave,ss in quartile (100 mg; Q2: [155-219) ng/mL): 19% | Percentage of Cave,ss in quartile (100 mg; Q3: [219-321) ng/mL): 28% | Percentage of Cave,ss in quartile (100 mg, Q4: [321-1326] ng/mL): 34% | Cmin,ss Geometric Mean (100 mg, ≥110 kg): 16.2 ng/mL | Cmin,ss Mean (100 mg, ≥110 kg): 43.4 ng/mL | Cmin,ss Median (100 mg, ≥110 kg): 12.8 ng/mL | t1/2α Geometric Mean (100 mg, ≥110 kg): 1.24 h | t1/2α Mean (100 mg, ≥110 kg): 1.38 h | t1/2α Median (100 mg, ≥110 kg): 1.30 h | t1/2β Geometric Mean (100 mg, ≥110 kg): 5.32 h | t1/2β Mean (100 mg, ≥110 kg): 6.33 h | t1/2β Median (100 mg, ≥110 kg): 4.50 h | AUC (80 mg, 80-<90 kg, read-out: AUCtau,ss Geometric Mean): 6010 ng·h/mL | AUC (80 mg, 80-<90 kg, read-out: AUCtau,ss Mean): 6660 ng·h/mL | AUC (80 mg, 80-<90 kg, read-out: AUCtau,ss Median): 5750 ng·h/mL | Cmax (80 mg, 80-<90 kg, read-out: Cmax,ss Geometric Mean): 816 ng/mL | Cmax (80 mg, 80-<90 kg, read-out: Cmax,ss Mean): 869 ng/mL | Cmax (80 mg, 80-<90 kg, read-out: Cmax,ss Median): 870 ng/mL | AUC (80 mg, 90-<100 kg, read-out: AUCtau,ss Geometric Mean): 5060 ng·h/mL | AUC (80 mg, 90-<100 kg, read-out: AUCtau,ss Mean): 5790 ng·h/mL | AUC (80 mg, 90-<100 kg, read-out: AUCtau,ss Median): 5030 ng·h/mL | Cmax (80 mg, 90-<100 kg, read-out: Cmax,ss Geometric Mean): 745 ng/mL | Cmax (80 mg, 90-<100 kg, read-out: Cmax,ss Mean): 789 ng/mL | Cmax (80 mg, 90-<100 kg, read-out: Cmax,ss Median): 795 ng/mL | AUC (80 mg, 100-<110 kg, read-out: AUCtau,ss Geometric Mean): 4370 ng·h/mL | AUC (80 mg, 100-<110 kg, read-out: AUCtau,ss Mean): 4740 ng·h/mL | AUC (80 mg, 100-<110 kg, read-out: AUCtau,ss Median): 4400 ng·h/mL | Cmax (80 mg, 100-<110 kg, read-out: Cmax,ss Geometric Mean): 624 ng/mL | Cmax (80 mg, 100-<110 kg, read-out: Cmax,ss Mean): 654 ng/mL | Cmax (80 mg, 100-<110 kg, read-out: Cmax,ss Median): 644 ng/mL | AUC (80 mg, <80 kg, read-out: AUCtau,ss Geometric Mean): 8080 ng·h/mL | AUC (80 mg, <80 kg, read-out: AUCtau,ss Mean): 9230 ng·h/mL | AUC (80 mg, <80 kg, read-out: AUCtau,ss Median): 8180 ng·h/mL | Cmax (80 mg, <80 kg, read-out: Cmax,ss Geometric Mean): 1120 ng/mL | Cmax (80 mg, <80 kg, read-out: Cmax,ss Mean): 1210 ng/mL | Cmax (80 mg, <80 kg, read-out: Cmax,ss Median): 1140 ng/mL | AUC (80 mg, ≥110 kg, read-out: AUCtau,ss Geometric Mean): 3470 ng·h/mL | AUC (80 mg, ≥110 kg, read-out: AUCtau,ss Mean): 3750 ng·h/mL | AUC (80 mg, ≥110 kg, read-out: AUCtau,ss Median): 3550 ng·h/mL | Cmax (80 mg, ≥110 kg, read-out: Cmax,ss Geometric Mean): 489 ng/mL | Cmax (80 mg, ≥110 kg, read-out: Cmax,ss Mean): 520 ng/mL | Cmax (80 mg, ≥110 kg, read-out: Cmax,ss Median): 504 ng/mL | AUC (100 mg, 80-<90 kg, read-out: AUCtau,ss Geometric Mean): 8550 ng·h/mL | AUC (100 mg, 80-<90 kg, read-out: AUCtau,ss Mean): 9660 ng·h/mL | AUC (100 mg, 80-<90 kg, read-out: AUCtau,ss Median): 7550 ng·h/mL | Cmax (100 mg, 80-<90 kg, read-out: Cmax,ss Geometric Mean): 1160 ng/mL | Cmax (100 mg, 80-<90 kg, read-out: Cmax,ss Mean): 1220 ng/mL | Cmax (100 mg, 80-<90 kg, read-out: Cmax,ss Median): 1200 ng/mL | AUC (100 mg, 90-<100 kg, read-out: AUCtau,ss Geometric Mean): 7990 ng·h/mL | AUC (100 mg, 90-<100 kg, read-out: AUCtau,ss Mean): 9010 ng·h/mL | AUC (100 mg, 90-<100 kg, read-out: AUCtau,ss Median): 7600 ng·h/mL | Cmax (100 mg, 90-<100 kg, read-out: Cmax,ss Geometric Mean): 954 ng/mL | Cmax (100 mg, 90-<100 kg, read-out: Cmax,ss Mean): 1010 ng/mL | Cmax (100 mg, 90-<100 kg, read-out: Cmax,ss Median): 1060 ng/mL | AUC (100 mg, 100-<110 kg, read-out: AUCtau,ss Geometric Mean): 6690 ng·h/mL | AUC (100 mg, 100-<110 kg, read-out: AUCtau,ss Mean): 7430 ng·h/mL | AUC (100 mg, 100-<110 kg, read-out: AUCtau,ss Median): 6250 ng·h/mL | Cmax (100 mg, 100-<110 kg, read-out: Cmax,ss Geometric Mean): 905 ng/mL | Cmax (100 mg, 100-<110 kg, read-out: Cmax,ss Mean): 958 ng/mL | Cmax (100 mg, 100-<110 kg, read-out: Cmax,ss Median): 966 ng/mL | AUC (100 mg, <80 kg, read-out: AUCtau,ss Geometric Mean): 8680 ng·h/mL | AUC (100 mg, <80 kg, read-out: AUCtau,ss Mean): 10800 ng·h/mL | AUC (100 mg, <80 kg, read-out: AUCtau,ss Median): 9610 ng·h/mL | Cmax (100 mg, <80 kg, read-out: Cmax,ss Geometric Mean): 1120 ng/mL | Cmax (100 mg, <80 kg, read-out: Cmax,ss Mean): 1310 ng/mL | Cmax (100 mg, <80 kg, read-out: Cmax,ss Median): 1370 ng/mL | AUC (100 mg, ≥110 kg, read-out: AUCtau,ss Geometric Mean): 4330 ng·h/mL | AUC (100 mg, ≥110 kg, read-out: AUCtau,ss Mean): 4940 ng·h/mL | AUC (100 mg, ≥110 kg, read-out: AUCtau,ss Median): 3900 ng·h/mL | Cmax (100 mg, ≥110 kg, read-out: Cmax,ss Geometric Mean): 575 ng/mL | Cmax (100 mg, ≥110 kg, read-out: Cmax,ss Mean): 642 ng/mL | Cmax (100 mg, ≥110 kg, read-out: Cmax,ss Median): 647 ng/mL
